IC50 data for 21 compounds are collected here from US11447479B2, “Compounds active towards nuclear receptors” (NUEVOLUTION A/S, priority 2019, dated 2022).

Structures are written as SMILES. Read-outs that look alike come from different tables or passages of the source.

For the assay, the target named is T1, RORγ (Homo sapiens, UniProt P51449).
T1 construct: Gal4 (galactose-responsive transcription factor); expressed in transfected cells; host or cells: HEK293
T1 sequence (P51449 269-508 limits assumed): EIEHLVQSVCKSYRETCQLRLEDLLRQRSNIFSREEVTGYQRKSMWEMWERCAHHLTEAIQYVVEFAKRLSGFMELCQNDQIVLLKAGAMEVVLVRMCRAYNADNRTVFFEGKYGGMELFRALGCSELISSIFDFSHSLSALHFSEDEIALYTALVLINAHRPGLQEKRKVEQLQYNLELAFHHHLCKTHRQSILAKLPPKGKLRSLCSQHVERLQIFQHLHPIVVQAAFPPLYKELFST
Briefly: RORγ Reporter Assay (Gal4). Type of assay: cell-based. Here is the method: RORγ Reporter Assay (Gal4)
The HEK293 cell line is co-transfected transiently with two plasmids, one with the RORγ ligand-binding domain fused to galactose-responsive transcription factor (Gal4), and the other with the luciferase reporter gene and Gal binding sites (UAS). This construction allows to determine the RORγ activity in a cellular system through the measurement of luminescence.
A suspension of RORγ reporter cells was dispensed into plates and cultured 2 h at 37° C. and 5% CO2. Media formulation consisted in DMEM/F-12 medium (Gibco) supplemented with 10% heat inactivated FBS (Sigma-Aldrich), non-essential aminoacids (Sigma-Aldrich), 2 mM Glutamax (Gibco) and 100 U/mF penicillin (Sigma-Aldrich). Dose-response curves with compounds were prepared in 100% DMSO and further diluted […] in culture medium. Compound solutions were added to the plate containing cells (final DMSO concentration of 0.1%) and incubated for 24 h at 37° C. and 5% CO2. Luciferase detection reagent was added to each well, and relative light units […] were quantified from each assay well using a plate reading luminometer.
Values of average RFU±S.D. were computed for all treatment sets, followed by the calculations of percent-reduction of RORγ activity in response to respective test compound. The following formula was used: activity=100*[1−[x test compound/average vehicle]where the theoretical minimum reduction (0% reduction).

[1] abbreviates: comparison compounds from WO2016020295, Tables 5 and 6, read-out: Gal4 assay IC50.
The mark [2] stands for this setting: HEK293 co-transfected with RORγ LBD-Gal4 and luciferase reporter, 24 h incubation, absolute IC50, read-out: IC50.

As a reminder, the IC50 is the concentration that inhibits the measured activity by half. Take `NC(=O)CC1CCC(CNc2ncnc(N3CCOC[C@@H]3c3ccc(C(F)(F)F)cc3)c2F)CC1` (stereo partly drawn) [Example 206, reference compound]: the IC50 under setting [1] is below 1000 nM.
For `CC(C(N)=O)N1CCC(CNc2ncnc(N3CCOC[C@@H]3c3ccc(C(F)(F)F)cn3)c2F)CC1` (stereo partly drawn) [Example H6-1], under setting [2], the IC50 stood at 910 nM.
As to `NC(=O)CN1CCC(CNc2ncnc(N3CCC3c3ccc(C(F)(F)F)cc3)c2F)CC1` (stereo not drawn) [Example H6-28, 2-(4-(((5-fluoro-6-(2-(4-(trifluoromethyl)phenyl)azetidin-1-yl)pyrimidin-4-yl)amino)methyl)piperidin-1-yl)acetamide], the IC50 under setting [2] amounted to 300 nM.
For `NC(=O)CN1CC[C@H](CNc2ncnc(N3CCOC[C@@H]3c3ccc(C(F)(F)F)cn3)c2F)[C@@H](F)C1` (single isomer, unassigned) [Example H6-13-1, 2-((3R*,4R*)-3-fluoro-4-(((5-fluoro-6-((S)-3-(5-(trifluoromethyl)pyridin-2-yl)morpholino)pyrimidin-4-yl)amino)methyl)piperidin-1-yl)acetamide], under setting [2], the IC50 worked out at 160 nM.
`NC(=O)Cc1ccc(CNc2ncnc(N3CCOC[C@@H]3c3ccc(C(F)(F)F)cc3)c2F)cc1` [Example 204, reference compound]: under setting [1], the IC50 was below 500 nM.
`NC(=O)CN1CCC(CNc2ncnc(N3CCCC3c3ccc(C(F)(F)F)cc3O)c2F)CC1` (stereo not drawn) [Example H6-26, 2-(4-(((5-fluoro-6-(2-(2-hydroxy-4-(trifluoromethyl)phenyl)pyrrolidin-1-yl)pyrimidin-4-yl)amino)methyl)piperidin-1-yl)acetamide]: the IC50 under setting [2] stood at 440 nM.
Turning to `NC(=O)CN1CCC(F)(CNc2ncnc(N3CCOC[C@@H]3c3ccc(C(F)(F)F)cn3)c2F)CC1` [Example H6-8, (S)-2-(4-fluoro-4-(((5-fluoro-6-(3-(5-(trifluoromethyl)pyridin-2-yl)morpholino)pyrimidin-4-yl)amino)methyl)piperidin-1-yl)acetamide], the IC50 under setting [2] was determined as 160 nM.
Same read-out and setting: the result for `NC(=O)CN1CCC(CNc2ncnc(N3CCC[C@@H]3c3ccc(C(F)(F)F)cc3)c2F)CC1` [Example H6-25-1, (R)-2-(4-(((5-fluoro-6-(2-(4-(trifluoromethyl)phenyl)pyrrolidin-1-yl)pyrimidin-4-yl)amino)methyl)piperidin-1-yl)acetamide] reads 66 nM; that for `NC(=O)CN1CC[C@H](CNc2ncnc(N3CC(F)(F)C[C@@H]3c3ccc(C(F)(F)F)cc3)c2F)[C@@H](O)C1` (mixture of isomers) [Example H6-17, 2-((3RS,4RS)-4-(((6-((R)-4,4-difluoro-2-(4-(trifluoromethyl)phenyl)pyrrolidin-1-yl)-5-fluoropyrimidin-4-yl)amino)methyl)-3-hydroxypiperidin-1-yl)acetamide], 10 nM.
As to `NC(=O)CN1CCC(CNc2ncnc(N3CC(F)(F)CC3c3ccc(C(F)(F)F)cc3)c2F)CC1` (stereo not drawn) [Example H6-24, 2-(4-(((6-(4,4-difluoro-2-(4-(trifluoromethyl)phenyl)pyrrolidin-1-yl)-5-fluoropyrimidin-4-yl)amino)methyl)piperidin-1-yl)acetamide], the IC50 under setting [2] was determined as 140 nM.
`NC(=O)CN1CC[C@H](CNc2ncnc(N3CCOC[C@@H]3c3ccc(C(F)(F)F)cc3)c2F)[C@@H](O)C1` (single isomer, unassigned) [Example H6-7-1, 2-((3R*,4R*)-4-(((5-fluoro-6-((S)-3-(4-(trifluoromethyl)phenyl)morpholino)pyrimidin-4-yl)amino)methyl)-3-hydroxypiperidin-1-yl)acetamide]: the IC50 under setting [2] was found to be 20 nM.
On to `NC(=O)CN1CCC(CNc2ncnc(N3CCOC[C@@H]3c3ccc(C(F)(F)F)cn3)c2F)C(F)(F)C1` (single isomer, unassigned) [Example H6-11-1, 2-((R*)-3,3-difluoro-4-(((5-fluoro-6-((S)-3-(5-(trifluoromethyl)pyridin-2-yl)morpholino)pyrimidin-4-yl)amino)methyl)piperidin-1-yl)acetamide], for which the 50% inhibitory concentration (IC50) under setting [2] turned out to be 360 nM.
In the case of `NC(=O)CN1CCC(O)(CNc2ncnc(N3CC(F)(F)C[C@@H]3c3ccc(C(F)(F)F)cc3)c2F)CC1` [Example H6-14, (R)-2-(4-(((6-(4,4-difluoro-2-(4-(trifluoromethyl)phenyl)pyrrolidin-1-yl)-5-fluoropyrimidin-4-yl)amino)methyl)-4-hydroxypiperidin-1-yl)acetamide], under setting [2], the IC50 worked out at 230 nM.
As to `NC(=O)CC1CCC(CNc2ncnc(N3CCOC[C@@H]3c3ccc(OC(F)(F)F)cc3)c2F)CC1` (stereo partly drawn) [Example 245, reference compound], the IC50 under setting [1] is below 500 nM.
With `C[C@@H]1COC[C@H](c2ccc(C(F)(F)F)cc2)N1c1ncnc(NC[C@@H]2CCN(CC(N)=O)C[C@H]2O)c1F` (single isomer, unassigned) [Example H6-22-1], the IC50 under setting [2] came out at 44 nM.
`NC(=O)CN1CC[C@H](CNc2ncnc(N3CC(F)(F)C[C@@H]3c3ccc(C(F)(F)F)cc3)c2F)[C@@H](O)C1` (single isomer, unassigned) [Example H6-17-2, 2-((3R*,4R*)-4-(((6-((R)-4,4-difluoro-2-(4-(trifluoromethyl)phenyl)pyrrolidin-1-yl)-5-fluoropyrimidin-4-yl)amino)methyl)-3-hydroxypiperidin-1-yl)acetamide]: under setting [2], the concentration for half-maximal inhibition (IC50) is 31 nM.
In the case of `C[C@@H]1COC[C@H](c2ccc(C(F)(F)F)cc2)N1c1ncnc(NC[C@@H]2CCN(CC(N)=O)C[C@H]2O)c1F` (single isomer, unassigned) [Example H6-22-2], the IC50 under setting [2] was 60 nM.
Take `NC(=O)CN1CC[C@H](CNc2ncnc(N3CC(F)(F)C[C@@H]3c3ccc(C(F)(F)F)cc3)c2F)[C@@H](F)C1` (single isomer, unassigned) [Example H6-16-2, 2-((3R*,4R*)-4-(((6-((R)-4,4-difluoro-2-(4-(trifluoromethyl)phenyl)pyrrolidin-1-yl)-5-fluoropyrimidin-4-yl)amino)methyl)-3-fluoropiperidin-1-yl)acetamide]: the IC50 under setting [2] was found to be 10 nM.
Still for that read-out and setting: with `NC(=O)CN1CCC(CNc2ncnc(N3C[C@H](F)C[C@@H]3c3ccc(C(F)(F)F)cc3)c2F)CC1` (racemic) [Example H6-27, rac-2-(4-(((5-fluoro-6-((2R,4R)-4-fluoro-2-(4-(trifluoromethyl)phenyl)pyrrolidin-1-yl)pyrimidin-4-yl)amino)methyl)piperidin-1-yl)acetamide] the figure was 210 nM; with `NC(=O)CN1CC[C@H](CNc2ncnc(N3CCOC[C@@H]3c3ccc(C(F)(F)F)cn3)c2F)[C@H](F)C1` (single isomer, unassigned) [Example H6-12-2, 2-((3R*,4S*)-3-fluoro-4-(((5-fluoro-6-((S)-3-(5-(trifluoromethyl)pyridin-2-yl)morpholino)pyrimidin-4-yl)amino)methyl)piperidin-1-yl)acetamide], 910 nM; with `NC(=O)CN1CCC(CNc2ncnc(N3CC(F)(F)C[C@@H]3c3ccc(C(F)(F)F)cc3)c2F)C(F)(F)C1` (single isomer, unassigned) [Example H6-15-2, 2-((R*)-4-(((6-((R)-4,4-difluoro-2-(4-(trifluoromethyl)phenyl)pyrrolidin-1-yl)-5-fluoropyrimidin-4-yl)amino)methyl)-3,3-difluoropiperidin-1-yl)acetamide], 25 nM.
